# According to article PMC8605905 (Oxidative Medicine and Cellular Longevity, 2021):
# Key:
# Assay type in all cases: cell-based, Human
# Aβ-GFP SH-SY5Y cells = assay: ROS assay (CellROX Orange) in Aβ-GFP cells; conditions: tested 1.2–5 μM
# Procedure: (§1) On day 1, Aβ-GFP or ∆K280 tauRD-DsRed SH-SY5Y cells were seeded into 96-well plates (2.5 × 10^4/well) and treated with retinoic acid (10 μM; Sigma-Aldrich) to prompt neuronal differentiation. […] On day 8, cells were stained with Hoechst 33342 (0.1 μg/ml; Sigma-Aldrich) for 30 min, and cell images were automatically captured at excitation/emission wavelengths of 482/[…] (GFP fluorescence) or 543/593 nm (DsRed fluorescence) using a high content analysis (HCA) system (Micro Confocal High-Content Imaging System). Image Acquisition and Analysis Software (MetaXpress) (Molecular Devices, Sunnyvale, CA, USA) was used to analyse the images. CellROX Orange (5 μM; Molecular Probes, Eugene, OR, USA) (for Aβ-GFP cells) or dichloro-dihydro-fluorescein diacetate (DCFH-DA, 10 μM; Invitrogen) (for ∆K280 tauRD-DsRed cells) was added to the cells and incubated at 37°C for 30 min. The HCA system was used to measure intracellular ROS at 531/593 nm (CellROX Orange fluorescence) or 482/536 nm (DCFH-DA fluorescence) of excitation/emission wavelengths.
# caspase 1 = assay: Caspase 1 activity in Aβ-GFP cells; conditions: 5 μM, vs untreated cells
# Procedure: Aβ-GFP or ∆K280 tauRD-DsRed SH-SY5Y cells were seeded into 6-well plates (5 × 10^5/well) and treated with retinoic acid, coumarin-chalcone derivatives, and doxycycline as previously described. On day 8, cells were collected and lysates were prepared with six freeze/thaw cycles. The supernatant was collected by centrifugation, followed by measurement of the caspase 1 activity in 50 μg aliquots of cell extract using the ICE fluorometric assay kit (BioVision, Milpitas, CA, USA). Following incubation of the mixture at 37°C for 2 h, fluorescence was measured with excitation/emission wavelengths at 400/505 nm (FLx800 fluorescence microplate reader). In addition, the collected cells were lysed by sonication. Acetylcholinesterase (AChE) activity in the supernatant was determined in 10 μg aliquots of cell extracts using the AChE activity assay kit (Sigma-Aldrich) according to the manufacture's protocol. Finally, the absorbance at 412 nm was measured using a Multiskan GO spectrophotometer (Thermo Fisher Scientific).
# [1] = test system: ∆K280 tauRD-DsRed SH-SY5Y cells; assay: High content analysis of ΔK280 tauRD-DsRed fluorescence; conditions: tested 2.5–10 μM
# Procedure: Human 293-derived Flp-In-293 cells (Invitrogen, Madison, WI, USA) were cultivated in Dulbecco's modified Eagle's medium (DMEM) containing 10% foetal bovine serum (FBS) (Thermo Fisher Scientific). Human neuroblastoma SH-SY5Y-derived Aβ-GFP [23] and ∆K280 tauRD-DsRed cells were kept in DMEM/nutrient mixture F12 (DMEM/F12) containing 10% FBS, 5 μg/ml blasticidin, and 100 μg/ml hygromycin (InvivoGen, San Diego, CA, USA). Doxycycline (Sigma-Aldrich) was applied to induce the expression of Aβ-GFP (5 μg/ml doxycycline) or ∆K280 tauRD-DsRed (2 μg/ml doxycycline).
# as §1
# [2] = test system: ∆K280 tauRD-DsRed SH-SY5Y cells; assay: Western blot in ΔK280 tauRD-DsRed SH-SY5Y cells; conditions: LM-021 10 μM, immunoblot
# Procedure: To monitor the cAMP-mediated signal transduction pathway, CRE-GFP 293 cells in 6-well plates (1 × 10^6/well) were pretreated with kinase inhibitor H-89 (LC Laboratories, Woburn, MA, USA), KN-62 (Cayman Chemical, Ann Arbor, MI, USA), U0126 (LC Laboratories), or wortmannin (LC Laboratories) (10 μM) for 4 h before forskolin or LM-021 (10 μM) addition for 5 h. GFP fluorescence/protein and total/phosphorylated PKA, CaMKII, ERK, PI3K, and CREB levels were examined. In addition, Aβ-GFP or ∆K280 tauRD-DsRed SH-SY5Y cells were treated with retinoic acid (10 μM) on day 1, followed by the addition of LM-021 (5 or 10 μM) and doxycycline (5 or 2 μg/ml) on day 2, as described. Kinase inhibitors (10 μM) were added on day 6. On day 8, the cells were collected for protein expression analysis of BDNF, BCL2 (BCL2 apoptosis regulator), and BAX (BCL2 associated X, apoptosis regulator), and total/phosphorylated PKA, CaMKII, ERK, PI3K, and CREB. Also, cells were stained with DAPI and assessed for neurite outgrowth as described above.
# Total proteins from CRE-GFP 293 and Aβ-GFP, ∆K280 tauRD-DsRed SH-SY5Y cells were extracted using lysis buffer (50 mM Tris-HCl (pH 8.0), 150 mM NaCl, 1 mM EDTA (pH 8.0), 1 mM EGTA (pH 8.0), 0.1% SDS, 0.5% sodium deoxycholate, 1% Triton X-100) containing phosphatase and protease inhibitor cocktails (Sigma-Aldrich). Protein concentrations were measured using a protein assay kit (Bio-Rad, Hercules, CA, USA), and 20 μg of proteins was separated with 10% SDS-PAGE and blotted onto polyvinylidene difluoride (PVDF) membranes (Sigma-Aldrich). After blocking, the membrane blot was incubated with primary antibody against GFP (1 : 500; Santa Cruz Biotechnology, Santa Cruz, CA, USA), PKA (1 : 1000; R&D Systems, Minneapolis, MN, USA), p-PKA (T197) (1 : 1000; Cell Signaling, Danvers, MA, USA), ERK (1 : 500; Cell Signaling), p-ERK (T202/Y204) (1 : 500; Cell Signaling), CaMKII (1 : 1000; Santa Cruz Biotechnology), p-CaMKII (T286) (1 : 1000; Cell Signaling), CREB (1 : 1000; Santa Cruz Biotechnology), p-CREB (S133) (1 : 1000; Millipore, Billerica, MA, USA), BDNF (1 : 500; Santa Cruz Biotechnology), BCL2 (1 : 500; BioVision), BAX (1 : 500; BioVision), GAPDH (glyceraldehyde-3-phosphate dehydrogenase, as a loading control) (1 : 1000; MDBio, Taipei, Taiwan), or β-tubulin (1 : 1000, Sigma-Aldrich, as a loading control). The immune complexes were visualized using horseradish peroxidase-conjugated goat anti-mouse or goat anti-rabbit IgG antibody (1 : 5000, GeneTex, Irvine, CA, USA) and a chemiluminescent substrate (Millipore).
smiles,measurement,setting,value
"CN(C)c1ccc(/C=C/C(=O)c2c(O)c3ccccc3oc2=O)cc1 [LM-021, (E)-3-(3-(4-(dimethylamino)phenyl)acryloyl)-4-hydroxy-2H-chromen-2-one]",Concentration effectively decreasing ROS levels caused by Aβ overexpression,Aβ-GFP SH-SY5Y cells,1.2 to 5 µM
same,Caspase 1 activity,caspase 1,reduced
same,EC50,"[1]; Homo sapiens, ∆K280 tauRD-DsRed SH-SY5Y cells, read-out: Extrapolated EC50 in inhibiting ∆K280 tauRD aggregation (DsRed fluorescence)",10 µM
same,Concentration significantly elevating DsRed fluorescence intensity,[1]; day 8,5 to 10 µM
same,BAX protein level,[2],decreased
same,"Level of PKA, CaMKII, or ERK",[2],nor LM-021 treatment significantly altered
same,"p-CREB, CREB, pro-BDNF, m-BDNF, and BCL2 protein levels",[2],significantly upregulated
same,"p-PKA, p-CaMKII, and p-ERK protein levels",[2],increased
